According to the NIST ThermoML archive (doi:10.1016/j.jct.2014.05.014):
± gives the expanded uncertainty stated by the source.

Assay: cn = amount concentration of the nth substance listed, in mol/dm3
Conditions: 101.3 kPa, Liquid; for electrical conductivity: Alternating current cell with electrodes; for viscosity: Falling or rolling sphere viscometry; for mass density: Vibrating tube method

CC(N)C(=O)[O-].[Na+] (stereo not drawn) [sodium DL-alaninate] + O
Conditions | electrical conductivity [S/m] | mass density [kg/m3] | viscosity [mPa·s]
303.15 K, c1 = 0.478 | – | – | 0.98 ± 0.021
303.15 K, c1 = 0.498 | 2.82 ± 0.06 | 1021.4 ± 1.6 | –
303.15 K, c1 = 0.985 | – | 1045.4 ± 1.7 | –
303.15 K, c1 = 0.99 | 4.45 ± 0.09 | – | –
303.15 K, c1 = 0.994 | – | – | 1.232 ± 0.027
303.15 K, c1 = 1.485 | 5.36 ± 0.11 | – | –
303.15 K, c1 = 1.495 | – | 1069 ± 1.7 | 1.579 ± 0.036
303.15 K, c1 = 1.975 | – | 1090.8 ± 1.8 | 2.011 ± 0.049
303.15 K, c1 = 1.983 | 5.78 ± 0.12 | – | –
303.15 K, c1 = 2.467 | – | 1113.1 ± 2 | –
303.15 K, c1 = 2.476 | 5.77 ± 0.12 | – | –
303.15 K, c1 = 2.496 | – | – | 2.683 ± 0.071
303.15 K, c1 = 3.032 | – | – | 3.708 ± 0.1
303.15 K, c1 = 3.048 | 5.43 ± 0.11 | – | –
303.15 K, c1 = 3.063 | – | 1139.4 ± 2.1 | –
308.15 K, c1 = 0.478 | – | – | 0.877 ± 0.019
308.15 K, c1 = 0.498 | 3.11 ± 0.07 | 1019.6 ± 1.6 | –
308.15 K, c1 = 0.985 | – | 1043.4 ± 1.7 | –
308.15 K, c1 = 0.99 | 4.92 ± 0.1 | – | –
308.15 K, c1 = 0.994 | – | – | 1.099 ± 0.024
308.15 K, c1 = 1.485 | 5.94 ± 0.12 | – | –
308.15 K, c1 = 1.495 | – | 1066.9 ± 1.7 | 1.423 ± 0.032
308.15 K, c1 = 1.975 | – | 1088.5 ± 1.8 | 1.771 ± 0.042
308.15 K, c1 = 1.983 | 6.45 ± 0.13 | – | –
308.15 K, c1 = 2.467 | – | 1110.7 ± 2 | –
308.15 K, c1 = 2.476 | 6.48 ± 0.13 | – | –
308.15 K, c1 = 2.496 | – | – | 2.341 ± 0.061
308.15 K, c1 = 3.032 | – | – | 3.187 ± 0.086
308.15 K, c1 = 3.048 | 6.17 ± 0.12 | – | –
308.15 K, c1 = 3.063 | – | 1136.8 ± 2.1 | –
313.15 K, c1 = 0.478 | – | – | 0.796 ± 0.017
313.15 K, c1 = 0.498 | 3.42 ± 0.07 | 1017.7 ± 1.6 | –
313.15 K, c1 = 0.985 | – | 1041.4 ± 1.7 | –
313.15 K, c1 = 0.99 | 5.41 ± 0.11 | – | –
313.15 K, c1 = 0.994 | – | – | 0.991 ± 0.022
313.15 K, c1 = 1.485 | 6.54 ± 0.13 | – | –
313.15 K, c1 = 1.495 | – | 1064.7 ± 1.7 | 1.243 ± 0.028
313.15 K, c1 = 1.975 | – | 1086.1 ± 1.8 | 1.574 ± 0.038
313.15 K, c1 = 1.983 | 7.13 ± 0.14 | – | –
313.15 K, c1 = 2.467 | – | 1108.2 ± 1.9 | –
313.15 K, c1 = 2.476 | 7.22 ± 0.14 | – | –
313.15 K, c1 = 2.496 | – | – | 2.06 ± 0.053
313.15 K, c1 = 3.032 | – | – | 2.765 ± 0.073
313.15 K, c1 = 3.048 | 6.94 ± 0.14 | – | –
313.15 K, c1 = 3.063 | – | 1134 ± 2.1 | –
318.15 K, c1 = 0.478 | – | – | 0.721 ± 0.016
318.15 K, c1 = 0.498 | 3.72 ± 0.08 | 1015.7 ± 1.6 | –
318.15 K, c1 = 0.985 | – | 1039.3 ± 1.7 | –
318.15 K, c1 = 0.99 | 5.89 ± 0.12 | – | –
318.15 K, c1 = 0.994 | – | – | 0.895 ± 0.02
318.15 K, c1 = 1.485 | 7.14 ± 0.15 | – | –
318.15 K, c1 = 1.495 | – | 1062.3 ± 1.7 | 1.122 ± 0.025
318.15 K, c1 = 1.975 | – | 1083.7 ± 1.8 | 1.405 ± 0.033
318.15 K, c1 = 1.983 | 7.82 ± 0.16 | – | –
318.15 K, c1 = 2.467 | – | 1105.5 ± 1.9 | –
318.15 K, c1 = 2.476 | 7.98 ± 0.16 | – | –
318.15 K, c1 = 2.496 | – | – | 1.821 ± 0.046
318.15 K, c1 = 3.032 | – | – | 2.426 ± 0.064
318.15 K, c1 = 3.048 | 7.72 ± 0.16 | – | –
318.15 K, c1 = 3.063 | – | 1131.3 ± 2.1 | –
323.15 K, c1 = 0.478 | – | – | 0.661 ± 0.014
323.15 K, c1 = 0.498 | 4.04 ± 0.08 | 1013.4 ± 1.6 | –
323.15 K, c1 = 0.985 | – | 1036.9 ± 1.7 | –
323.15 K, c1 = 0.99 | 6.38 ± 0.13 | – | –
323.15 K, c1 = 0.994 | – | – | 0.817 ± 0.018
323.15 K, c1 = 1.485 | 7.76 ± 0.16 | – | –
323.15 K, c1 = 1.495 | – | 1059.8 ± 1.7 | 1.014 ± 0.023
323.15 K, c1 = 1.975 | – | 1081.1 ± 1.8 | 1.268 ± 0.03
323.15 K, c1 = 1.983 | 8.52 ± 0.17 | – | –
323.15 K, c1 = 2.467 | – | 1102.8 ± 1.9 | –
323.15 K, c1 = 2.476 | 8.73 ± 0.17 | – | –
323.15 K, c1 = 2.496 | – | – | 1.629 ± 0.041
323.15 K, c1 = 3.032 | – | – | 2.146 ± 0.056
323.15 K, c1 = 3.048 | 8.52 ± 0.17 | – | –
323.15 K, c1 = 3.063 | – | 1128.4 ± 2.1 | –
328.15 K, c1 = 0.478 | – | – | 0.606 ± 0.013
328.15 K, c1 = 0.498 | 4.37 ± 0.09 | 1011.1 ± 1.6 | –
328.15 K, c1 = 0.985 | – | 1034.5 ± 1.7 | –
328.15 K, c1 = 0.99 | 6.87 ± 0.14 | – | –
328.15 K, c1 = 0.994 | – | – | 0.75 ± 0.016
328.15 K, c1 = 1.485 | 8.38 ± 0.17 | – | –
328.15 K, c1 = 1.495 | – | 1057.3 ± 1.7 | 0.924 ± 0.021
328.15 K, c1 = 1.975 | – | 1078.4 ± 1.8 | 1.148 ± 0.027
328.15 K, c1 = 1.983 | 9.22 ± 0.19 | – | –
328.15 K, c1 = 2.467 | – | 1100.2 ± 1.9 | –
328.15 K, c1 = 2.476 | 9.5 ± 0.19 | – | –
328.15 K, c1 = 2.496 | – | – | 1.467 ± 0.037
328.15 K, c1 = 3.032 | – | – | 1.912 ± 0.049
328.15 K, c1 = 3.048 | 9.33 ± 0.19 | – | –
328.15 K, c1 = 3.063 | – | 1125.4 ± 2.1 | –
333.15 K, c1 = 0.478 | – | – | 0.559 ± 0.012
333.15 K, c1 = 0.498 | 4.68 ± 0.1 | 1008.7 ± 1.6 | –
333.15 K, c1 = 0.985 | – | 1032 ± 1.7 | –
333.15 K, c1 = 0.99 | 7.37 ± 0.15 | – | –
333.15 K, c1 = 0.994 | – | – | 0.687 ± 0.015
333.15 K, c1 = 1.485 | 8.99 ± 0.18 | – | –
333.15 K, c1 = 1.495 | – | 1054.6 ± 1.7 | 0.847 ± 0.019
333.15 K, c1 = 1.975 | – | 1075.7 ± 1.8 | 1.047 ± 0.025
333.15 K, c1 = 1.983 | 9.93 ± 0.2 | – | –
333.15 K, c1 = 2.467 | – | 1097.2 ± 1.9 | –
333.15 K, c1 = 2.476 | 10.3 ± 0.21 | – | –
333.15 K, c1 = 2.496 | – | – | 1.326 ± 0.033
333.15 K, c1 = 3.032 | – | – | 1.718 ± 0.044
333.15 K, c1 = 3.048 | 10.1 ± 0.2 | – | –
333.15 K, c1 = 3.063 | – | 1122.4 ± 2.1 | –
338.15 K, c1 = 0.478 | – | – | 0.52 ± 0.011
338.15 K, c1 = 0.498 | 5.01 ± 0.1 | 1006 ± 1.6 | –
338.15 K, c1 = 0.985 | – | 1029.3 ± 1.7 | –
338.15 K, c1 = 0.99 | 7.87 ± 0.16 | – | –
338.15 K, c1 = 0.994 | – | – | 0.638 ± 0.014
338.15 K, c1 = 1.485 | 9.62 ± 0.2 | – | –
338.15 K, c1 = 1.495 | – | 1051.8 ± 1.7 | 0.778 ± 0.017
338.15 K, c1 = 1.975 | – | 1072.9 ± 1.8 | 0.96 ± 0.022
338.15 K, c1 = 1.983 | 10.7 ± 0.21 | – | –
338.15 K, c1 = 2.467 | – | 1094.3 ± 1.9 | –
338.15 K, c1 = 2.476 | 11 ± 0.22 | – | –
338.15 K, c1 = 2.496 | – | – | 1.206 ± 0.03
338.15 K, c1 = 3.032 | – | – | 1.546 ± 0.039
338.15 K, c1 = 3.048 | 11 ± 0.22 | – | –
338.15 K, c1 = 3.063 | – | 1119.4 ± 2.1 | –
343.15 K, c1 = 0.478 | – | – | 0.484 ± 0.01
343.15 K, c1 = 0.498 | 5.34 ± 0.11 | 1003.1 ± 1.6 | –
343.15 K, c1 = 0.985 | – | 1026.4 ± 1.7 | –
343.15 K, c1 = 0.99 | 8.38 ± 0.17 | – | –
343.15 K, c1 = 0.994 | – | – | 0.591 ± 0.013
343.15 K, c1 = 1.485 | 10.2 ± 0.21 | – | –
343.15 K, c1 = 1.495 | – | 1049 ± 1.7 | 0.729 ± 0.016
343.15 K, c1 = 1.975 | – | 1069.9 ± 1.8 | 0.881 ± 0.02
343.15 K, c1 = 1.983 | 11.3 ± 0.23 | – | –
343.15 K, c1 = 2.467 | – | 1091.2 ± 1.9 | –
343.15 K, c1 = 2.476 | 11.8 ± 0.24 | – | –
343.15 K, c1 = 2.496 | – | – | 1.102 ± 0.027
343.15 K, c1 = 3.032 | – | – | 1.408 ± 0.035
343.15 K, c1 = 3.048 | 11.8 ± 0.24 | – | –
343.15 K, c1 = 3.063 | – | 1116.2 ± 2.1 | –
